Test results: patent publication US10537535B2, “Histone deacetylase inhibitors” (The Regents of the University of California, priority 2015, dated 2020)

Experiments:
pGMR-HTTQ120 flies = details: orally-administered, previous studies; cited from earlier work
Gr63a = experiment: Whole mount RNA in situ of adult Drosophila antenna Gr63a; format: in vivo; details: 5 days; odor 1 1% on filter paper, sodium butyrate 10 mM fed; vs untreated or mock
Method: For five days, Drosophila were exposed to 1% diacetyl (odor 1) on filter paper; fed known HDAC inhibitor sodium butyrate (Na-but; 10 mM); or fed known HDAC inhibitor valproic acid (10 mM).

[1] = test system: gene expression in the antenna of Drosophila melanogaster; experiment: RNA-seq transcriptome analysis of Drosophila antennae after exposure or feeding; format: in vivo; details: 5 days; diacetyl 1% headspace, SB/VA 10 mM in food; vs control
Source text: In order to examine the physiological effects of long-term exposure to an odorant, flies were maintained in vials with circulating volatiles from headspace of a low concentration (1% in paraffin oil) of the odorant diacetyl, which acts on a number of different receptor pathways in Drosophila. In a similar manner to previous odor-exposure studies, flies were exposed to diacetyl for 5 days and performed an RNA-seq analysis of the antennae, which are known odor-detecting organs. The transcriptome was compared with a control group of age-matched flies that were exposed to the headspace of the solvent paraffin oil (PO, FIG. 3A).
Flies were exposed to diacetyl (2,3-Butanedione, B85307, Sigma-Aldrich, St. Louis, Mo.) by placing them in vials in a cylindrical closed container (112 mm diameter×151 mm height) along with an odor-containing glass vial. The odorant was dissolved in 10 mL paraffin oil at 1% dilution. For a given exposure protocol, two groups of flies were prepared: those exposed to 1% diacetyl headspace and those exposed to paraffin oil headspace alone (control flies). Adult male flies aged 1 d were transferred to fly vials containing fresh medium, and put into the container with the odor vial. At the end of the fifth day of exposure, flies were collected, and their antennae were dissected for RNA extraction. All treatments and experiments were performed at room temperature. For the recovery experiment, flies were transferred again to the container containing a glass vial of paraffin oil after 5 days of diacetyl exposure. At the end of the fifth day of recovery, flies were collected, and their antennae were dissected for RNA extraction.
Sodium butyrate (B5887, Sigma-Aldrich) or valproic acid (P4543, Sigma-Aldrich) were dissolved in normal fly food medium at the final concentration of 10 mM. Three groups of flies were prepared: those treated with one of the HDAC inhibitors and those without HDAC inhibitor treatment (control flies). Adult flies aged 1 d were transferred to fly vials containing medium with or without a HDAC inhibitor. At the end of the fifth day of treatment, flies were collected, and their antennae were dissected for RNA extraction. All treatments and experiments were performed at room temperature.
The second and third antennal segments from 40-60 male flies after treatment were carefully hand-dissected from the head, collected in 1.5 ml microfuge tubes kept cold in liquid nitrogen. Antennae were mechanically crushed with disposable RNAse-free plastic pestles, and total RNA was isolated using a Trizol-based protocol. cDNA libraries were prepared from total RNA (300-1000 ng/sample) using the Illumina TruSeq RNA Library Preparation Kit (Illumina Catalog #RS-122-2001). Samples were submitted to the UCR IIGB sequencing core for high-throughput sequencing using the Illumina HiSeq2500 platform. Raw reads were aligned to the Drosophila melanogaster reference genome (dmel-all-chromosome-r5.48.fasta) with Tophat2, and a count table of reads overlapping with exonic regions of genes was generated by the UCR bioinformatics core. The numbers of biological replicates are: 2, day 5 paraffin oil; 1, day 5 diacetyl; 2, day 5 mock; 2, day 5 sodium butyrate; 2, day 5 valproic acid; 2, day 10 paraffin oil recovery; 2, day 10 diacetyl recovery.
The read count table for all the genes were then imported into R and a statistical analysis of differential gene expression using the DESeq package (1.22.0) was performed. […] The gene list analysis was performed using the GO Term Mapper (http://go.princeton.edu/) with Generic GO slim datasets, and the Statistical overrepresentation test was performed using the PANTHER classification (http://www.pantherdb.org/) system with GO complete datasets.
This example investigates the overlap among genes modulated by diacetyl as compared to sodium butyrate and valproic acid, which are known HDAC inhibitors. […]

SMILES	photoreceptor degeneration in Huntington's model Drosophila (pGMR-HTTQ120 flies)	Gr63a expression in antenna (RNA in situ) (Gr63a)	number of differentially-expressed genes in antennal transcriptome [1]	number of genes down-regulated >2-fold [1]	number of genes up-regulated >2-fold [1]
O=C(CCCCCCC(=O)Nc1ccccc1)NO [SAHA, suberoylanilide hydroxamic acid]	significantly reduce photoreceptor degeneration				
CCCC(=O)[O-].[Na+] [sodium butyrate, Sodium butyrate, reference compound]	significantly reduce photoreceptor degeneration	over-expression	558 genes	366 genes	192 genes
CCCC(CCC)C(=O)O [valproic acid, reference compound]			940 genes	772 genes	168 genes
